# Source: patent publication EP0908457B1, “3-(1,2-benzisothiazol- and isoxazol-5-Y1)-2,4(1H,3H)-pyrimidinedione or thione and 3-(1,2-benzisothiazol- and isoxazol-5-y1)-4(3H)-pyrimidinone or thione herbicidal agents” (BASF AKTIENGESELLSCHAFT, priority 1997, dated 1999)
# Assays:
# [1] = tested on: Sagittaria pygmaea, L.; assay: Preemergence weed control under flooded paddy conditions, SAGPY (Arrowhead (Pygmaea)); format: in vivo; conditions: flooded paddy; for herbicidal effect rating, SAGPY: preemergence; for SAGPY: preemergence weeds, herbicidal effect rating 0-9, three to four weeks after treatment; as to herbicidal effect rating, SAGPY: meaning of each grade not given here
# [2] = tested on: Echinochloa oryzoides (Ard.) Fritsch.; assay: Preemergence weed control under flooded paddy conditions, ECHORC (Watergrass (Calif.)); format: in vivo; conditions: flooded paddy; for herbicidal effect rating, ECHORC: preemergence; for ECHORC: preemergence weeds, herbicidal effect rating 0-9, three to four weeks after treatment; as to herbicidal effect rating, ECHORC: meaning of each grade not given here
# [3] = tested on: Cyperus serotinus, Rottb.; assay: Preemergence weed control under flooded paddy conditions, CYPSE (Flatsedge); format: in vivo; conditions: for herbicidal effect rating, CYPSE: preemergence; for CYPSE: preemergence weeds, herbicidal effect rating 0-9, three to four weeks after treatment; as to herbicidal effect rating, CYPSE: meaning of each grade not given here
# [4] = tested on: Monochoria vaginalis, Presl.; assay: Preemergence weed control under flooded paddy conditions, MOOVA (Monochoria); format: in vivo; conditions: flooded paddy; for herbicidal effect rating, MOOVA: preemergence; for MOOVA: preemergence weeds, herbicidal effect rating 0-9, three to four weeks after treatment; as to herbicidal effect rating, MOOVA: meaning of each grade not given here
# [5] = tested on: Cyperus iria; assay: Preemergence weed control under flooded paddy conditions, CYPIR (Rice Flatsedge); format: in vivo; conditions: flooded paddy; for herbicidal effect rating, CYPIR: preemergence; for CYPIR: preemergence weeds, herbicidal effect rating 0-9, three to four weeks after treatment; as to herbicidal effect rating, CYPIR: meaning of each grade not given here
# [6] = tested on: Oryza sativa, (L.) Tebonnet; assay: Rice tolerance to post-transplant applications under flooded paddy conditions (Example 187), ORYSAT (Rice, Tebonnet); conditions: for ORYSAT: herbicidal effect rating 0-9, three to four weeks after treatment; as to herbicidal effect rating ORYSAT: meaning of each grade not given here
# [7] = Rate 0.0320 kg/ha, rated three to four weeks after treatment
# [8] = Rate 0.0620 kg/ha, rated three to four weeks after treatment
# [9] = Rate 0.1250 kg/ha, rated three to four weeks after treatment
# [10] = Rate 0.2500 kg/ha, rated three to four weeks after treatment
# [11] = Rate 0.0320 kg/ha, rated 3-4 weeks after treatment
# [12] = Rate 0.0620 kg/ha, rated 3-4 weeks after treatment
# [13] = Rate 0.1250 kg/ha, rated 3-4 weeks after treatment
# [14] = Rate 0.2500 kg/ha, rated 3-4 weeks after treatment
# [15] = Rate 0.5000 kg/ha, rated 3-4 weeks after treatment
smiles,measurement,setting,value
"C=C(Cl)COC(=O)c1nsc2ccc(-n3c(=O)cc(C(F)(F)F)n(C)c3=O)cc12 [Example 386, 1,2-Benzisothiazole-3-carboxylic acid, 5-[3,6-dihydro-3-methyl-2,6-dioxo-4-(trifluoromethyl)-1(2H)-pyrimidinyl]-, 2-chloroallyl ester]","herbicidal effect rating, SAGPY",[1]; [7],4.0
same,"herbicidal effect rating, SAGPY",[1]; [8],7.0
same,"herbicidal effect rating, SAGPY",[1]; [9],9.0
same,"herbicidal effect rating, SAGPY",[1]; [10],9.0
same,"herbicidal effect rating, ECHORC",[2]; [7],0.0
same,"herbicidal effect rating, ECHORC",[2]; [8],3.0
same,"herbicidal effect rating, ECHORC",[2]; [9],4.0
same,"herbicidal effect rating, ECHORC",[2]; [10],5.0
same,"herbicidal effect rating, CYPSE",[3]; [7],3.0
same,"herbicidal effect rating, CYPSE",[3]; [8],7.0
same,"herbicidal effect rating, CYPSE",[3]; [9],7.0
same,"herbicidal effect rating, CYPSE",[3]; [10],7.0
same,"herbicidal effect rating, MOOVA",[4]; [7],9.0
same,"herbicidal effect rating, MOOVA",[4]; [8],9.0
same,"herbicidal effect rating, MOOVA",[4]; [9],9.0
same,"herbicidal effect rating, MOOVA",[4]; [10],9.0
same,"herbicidal effect rating, CYPIR",[5]; [7],7.0
same,"herbicidal effect rating, CYPIR",[5]; [8],9.0
same,"herbicidal effect rating, CYPIR",[5]; [9],9.0
same,"herbicidal effect rating, CYPIR",[5]; [10],9.0
same,herbicidal effect rating ORYSAT,[6]; [7],5.0
same,herbicidal effect rating ORYSAT,[6]; [8],5.0
same,herbicidal effect rating ORYSAT,[6]; [9],5.0
same,herbicidal effect rating ORYSAT,[6]; [10],5.0
"CN(c1ccc(-c2nsc3ccc(-n4c(=O)cc(C(F)(F)F)n(C)c4=O)cc23)cc1)S(C)(=O)=O [Example 430, Methanesulfonanilide, 4'-{5-[3,6-dihydro-3-methyl-2,6-dioxo-4-(trifluoromethyl)-1(2H)-pyrimidinyl]-1,2-benzisothiazol-3-yl}-N-methyl-]",SAGPY,[1]; 0.1250 kg/ha,6.0
same,SAGPY,[1]; 0.2500 kg/ha,7.0
same,ECHORC,[2]; 0.0320 kg/ha,5.0
same,ECHORC,[2]; 0.0620 kg/ha,5.0
same,ECHORC,[2]; 0.1250 kg/ha,7.0
same,ECHORC,[2]; 0.2500 kg/ha,9.0
same,CYPSE,[3]; 0.0320 kg/ha,0.0
same,CYPSE,[3]; 0.0620 kg/ha,0.0
same,CYPSE,[3]; 0.1250 kg/ha,2.0
same,CYPSE,[3]; 0.2500 kg/ha,7.0
same,MOOVA,[4]; 0.0320 kg/ha,9.0
same,MOOVA,[4]; 0.0620 kg/ha,9.0
same,MOOVA,[4]; 0.1250 kg/ha,9.0
same,MOOVA,[4]; 0.2500 kg/ha,9.0
same,CYPIR,[5]; 0.0320 kg/ha,2.0
same,CYPIR,[5]; 0.0620 kg/ha,6.0
same,CYPIR,[5]; 0.1250 kg/ha,7.0
same,CYPIR,[5]; 0.2500 kg/ha,6.0
same,ORYSAT,[6]; 0.0320 kg/ha,3.0
same,ORYSAT,[6]; 0.0620 kg/ha,2.0
same,ORYSAT,[6]; 0.1250 kg/ha,4.0
same,ORYSAT,[6]; 0.2500 kg/ha,3.0
"CCCS(=O)(=O)NC(=O)COc1ccc(C)cc1-c1nsc2ccc(-n3c(=O)cc(C(F)(F)F)n(C)c3=O)cc12 [Example 552, Acetamide, 2-{{2-{5-[3,6-dihydro-3-methyl-2,6-dioxo-4-(trifluoromethyl)-1(2H)-pyrimidinyl]-1,2-benzisothiazol-3-yl}-p-tolyl}oxy}-N-(propylsulfonyl)-]","herbicidal effect rating, SAGPY",[1]; [11],0.0
same,"herbicidal effect rating, SAGPY",[1]; [12],0.0
same,"herbicidal effect rating, SAGPY",[1]; [13],0.0
same,"herbicidal effect rating, SAGPY",[1]; [14],0.0
same,"herbicidal effect rating, SAGPY",[1]; [15],5.0
same,"herbicidal effect rating, ECHORC",[2]; [11],2.6
same,"herbicidal effect rating, ECHORC",[2]; [12],3.7
same,"herbicidal effect rating, ECHORC",[2]; [13],4.7
same,"herbicidal effect rating, ECHORC",[2]; [14],9.0
same,"herbicidal effect rating, ECHORC",[2]; [15],9.0
same,"herbicidal effect rating, CYPSE",[3]; [11],0.0
same,"herbicidal effect rating, CYPSE",[3]; [13],4.0
same,"herbicidal effect rating, CYPSE",[3]; [14],9.0
same,"herbicidal effect rating, CYPSE",[3]; [15],9.0
same,"herbicidal effect rating, MOOVA",[4]; [11],6.0
same,"herbicidal effect rating, MOOVA",[4]; [12],8.0
same,"herbicidal effect rating, MOOVA",[4]; [13],9.0
same,"herbicidal effect rating, MOOVA",[4]; [14],9.0
same,"herbicidal effect rating, MOOVA",[4]; [15],9.0
same,"herbicidal effect rating, CYPIR",[5]; [11],6.0
same,"herbicidal effect rating, CYPIR",[5]; [12],8.0
same,"herbicidal effect rating, CYPIR",[5]; [13],7.0
same,"herbicidal effect rating, CYPIR",[5]; [14],9.0
same,"herbicidal effect rating, CYPIR",[5]; [15],9.0
same,herbicidal effect rating ORYSAT,[6]; [11],4.0
same,herbicidal effect rating ORYSAT,[6]; [12],6.0
same,herbicidal effect rating ORYSAT,[6]; [13],6.0
same,herbicidal effect rating ORYSAT,[6]; [14],7.0
same,herbicidal effect rating ORYSAT,[6]; [15],4.0
"CCCCS(=O)(=O)NC(=O)COc1ccc(C)cc1-c1nsc2ccc(-n3c(=O)cc(C(F)(F)F)n(C)c3=O)cc12 [Example 573, Acetamide, N-(butylsulfonyl)-2-{{2-{5-[3,6-dihydro-3-methyl-2,6-dioxo-4-(trifluoromethyl)-1(2H)-pyrimidinyl]-1,2-benzisothiazol-3-yl}-p-tolyl}oxy}-]","herbicidal effect rating, SAGPY",[1]; [7],0.0
same,"herbicidal effect rating, SAGPY",[1]; [8],0.0
same,"herbicidal effect rating, SAGPY",[1]; [9],0.0
same,"herbicidal effect rating, SAGPY",[1]; [10],2.0
same,"herbicidal effect rating, ECHORC",[2]; [7],6.0
same,"herbicidal effect rating, ECHORC",[2]; [8],7.0
same,"herbicidal effect rating, ECHORC",[2]; [9],7.0
same,"herbicidal effect rating, ECHORC",[2]; [10],7.0
same,"herbicidal effect rating, CYPSE",[3]; [7],0.0
same,"herbicidal effect rating, CYPSE",[3]; [8],0.0
same,"herbicidal effect rating, CYPSE",[3]; [9],0.0
same,"herbicidal effect rating, CYPSE",[3]; [10],4.0
same,"herbicidal effect rating, MOOVA",[4]; [7],9.0
same,"herbicidal effect rating, MOOVA",[4]; [8],9.0
same,"herbicidal effect rating, MOOVA",[4]; [9],9.0
same,"herbicidal effect rating, MOOVA",[4]; [10],9.0
same,"herbicidal effect rating, CYPIR",[5]; [7],0.0
same,"herbicidal effect rating, CYPIR",[5]; [8],3.0
same,"herbicidal effect rating, CYPIR",[5]; [9],5.0
same,"herbicidal effect rating, CYPIR",[5]; [10],5.0
same,herbicidal effect rating ORYSAT,[6]; [7],0.0
same,herbicidal effect rating ORYSAT,[6]; [8],0.0
same,herbicidal effect rating ORYSAT,[6]; [9],0.0
same,herbicidal effect rating ORYSAT,[6]; [10],1.0
